This is an account of results in PMC6930649, “Four New Iridoid Metabolites Have Been Isolated from the Stems of Neonauclea reticulata (Havil.) Merr. with Anti-Inflammatory Activities on LPS-Induced RAW264.7 Cells” (Molecules, 2019).

Values after ≈ are worked out from the molar mass of the structure shown.

Data set [1] in a line: Cell viability assay (MTT) in RAW264.7 cells. Type of data set: cell-based. The conditions noted are these: mouse, RAW264.7 macrophage cells, 6.25-100 μg/mL, LPS 100 ng/mL, mean ± SD of three independent experiments. On the procedure: (§1) RAW264.7 the mouse macrophages cell line (Bioresource Collection and Research Center (BCRC) Number: 60001) was obtained from Food Industry Research and Development Institute (Hsinchu, Taiwan). All of the cell lines were cultured in DMEM containing 10% (v:v) fetal bovine serum (FBS), penicillin and streptomycin (100 U/mL), 4 mM L-glutamine (100 U/mL). The cells were cultured in a humidified incubator under 5% CO2 at 37 °C. The RAW264.7 cells (5 × 10^5 cells per mL) were seeded into plates for 24 h before treatment.
(§2) The in-vitro cell viability activity of MeOH extracts, partition fractions and pure compounds were determined by the MTT assay. RAW264.7 cells (5 × 10^4/well) were seeded in 96-well plates and incubated for 24 h. The cells were treated with MeOH extracts and contain partition fractions in various concentrations (0, 62.5, 125, 250, 500 and 1000 μg/mL), compounds and positive control (0, 6.25, 12.5, 25, 50 and 100 μg/mL) in the presence or absence of LPS (100 ng/mL) for 24 h. After 24 h, the medium was replaced with a medium containing 0.5 mg/mL MTT solution and incubated at 37 °C for 4 h. After the end of the MTT reaction, we used 0.04 N HCl /isopropanol solution to dissolve the formazan crystals. The absorbance was measured at 570 nm using a microplate reader (Molecular Devices, LLC.). The cell viability was calculated and compared with the control group.

Data set [2] deals with NO production by LPS stimulated in RAW264.7 cells. Briefly: Inhibition of NO production in LPS-stimulated RAW264.7 macrophages (Griess reagent). Type of data set: cell-based, mouse. The conditions noted are these: LPS-stimulated RAW264.7 cells; for IC50: Mus musculus, read-out: IC50 (inhibition of nitric oxide production). On the procedure:
as §1, §2
The supernatant collected from cell culture and mixed with an equal volume of Griess reagent (1% sulphanilamide, 0.1% naphthylethylenediamine dihydrochloride and 5% phosphoric acid) and the absorbance value was measured at 540 nm using an ELISA plate reader.
The IC50 values for NO production were presented as mean values ± SD (standard deviations) of at least three independent experiments. The statistical significance of the differences was evaluated using Student’s t-test using IBM SPSS v.20.0 (SPSS Inc., Chicago, IL, USA). The percentage of NO production and cell viability were compared using variance analysis with GraphPad Prism 7.0 (GraphPad Software Inc., San Diego, CA, USA).

Setting [3] is: pure compounds, 6.25-100 μg/mL, 24 h, mean ± SD of three independent experiments.

As to `COC(=O)C1C(O)OC(=O)C2C(C)C(O)CC12` (stereo not drawn) [Compound 1, neonanin C], the 50% cytotoxic concentration (CC50) at 24 h in data set [1] was > 100 µg/mL. Further, the concentration for half-maximal inhibition (IC50) in data set [2] (setting [3]) is > 100 µg/mL.

Take `COC(=O)C(CO)C1CC(O)C(C)C1COC(=O)c1ccccc1` (stereo not drawn) [Compound 2, neonanin D]: the CC50 at 24 h in data set [1] is > 100 µg/mL. The half-inhibitory concentration (IC50) in data set [2] (setting [3]) is > 100 µg/mL.

Take `COC(=O)C1=COC(O)C2C1CC(OC1OC(=O)C3C(C)C(O)CC3C1C(=O)OC)C2C` (stereo not drawn) [Compound 3, reticunin A]: the CC50 at 24 h in data set [1] is > 100 µg/mL. Further, in data set [2] (setting [3]), the half-maximal inhibitory concentration (IC50) is > 100 µg/mL.

Consider `COC(=O)C1COC(=O)C2C(C)C(OC3OC(=O)C4C(C)C(O)CC4C3C(=O)OC)CC12` (stereo not drawn) [Compound 4, reticunin B], for which, in data set [1], the 50% cytotoxic concentration (CC50) at 24 h was > 100 µg/mL. Also, the 50% inhibitory concentration (IC50) in data set [2] (setting [3]) is > 100 µg/mL.

With `COC(=O)C1=CNC(=O)[C@@H]2[C@@H](C)[C@@H](O)C[C@H]12` [Compound 5, strychnovoline], in data set [1], the 50% cytotoxic concentration (CC50) at 24 h was > 100 µg/mL. Also, the IC50 in data set [2] (setting [3]) is > 100 µg/mL.

Take `COC(=O)C1=COC[C@@H]2[C@@H](C)[C@@H](O)C[C@H]12` [Compound 6, siphonostegiol]: the cytotoxic concentration (CC50) at 24 h in data set [1] is > 100 µg/mL. The half-inhibitory concentration (IC50) in data set [2] (setting [3]) is > 100 µg/mL.

In the case of `C[C@@H]1[C@H]2COC(=O)C[C@H]2C[C@@H]1O` [Compound 7, isoboonein], the 50% cytotoxic concentration (CC50) at 24 h in data set [1] is > 100 µg/mL. Moreover, the 50% inhibitory concentration (IC50) in data set [2] (setting [3]) turned out to be 86.3 ± 3.45 µg/mL (≈ 507 µM).

`C/C=C1/C(=O)OCC[C@H]1CCO` [Compound 8, floribundane B]: in data set [1], the cytotoxic concentration (CC50) at 24 h is > 100 µg/mL. The IC50 in data set [2] (setting [3]) was > 100 µg/mL.

As to `C[C@@H]1[C@H]2COC(=O)[C@@H](CO)[C@H]2C[C@@H]1O` [Compound 9, alyxialactone], the CC50 at 24 h in data set [1] is > 100 µg/mL. In addition, in data set [2] (setting [3]), the IC50 was > 100 µg/mL.

Regarding `COc1cc([C@H]2OC[C@H]3[C@@H]2CO[C@@H]3c2cc(OC)c(O)c(OC)c2)cc(OC)c1O` [Compound 10, syringaresinol], the half-maximal cytotoxic concentration (CC50) at 24 h in data set [1] was > 100 µg/mL. The IC50 in data set [2] (setting [3]) was 9.18 ± 1.9 µg/mL (≈ 21.9 µM). The “IC50 fold less than indomethacin (positive control)” value in data set [2] (NO inhibition) amounted to 5 fold.

On to `COc1cc([C@@H]2OC[C@@H]3[C@H]2CO[C@H]3c2cc(OC)c(O)c(OC)c2)ccc1O` [Compound 12, (+)-medioresinol], for which the 50% cytotoxic concentration (CC50) at 24 h in data set [1] was > 100 µg/mL. Besides, in data set [2] (setting [3]), the IC50 was 76.2 ± 2.42 µg/mL (≈ 196 µM).

For the compound `COc1ccc(O)c(O)c1` [Compound 13, 4-methoxycatechol], the cytotoxic concentration (CC50) at 24 h in data set [1] is > 100 µg/mL. Also, the IC50 in data set [2] (setting [3]) was > 100 µg/mL.

For the compound `O=C(O)c1ccc(O)c(O)c1` [Compound 14, protocatechuic acid], the CC50 at 24 h in data set [1] was > 100 µg/mL. For the same compound, the IC50 in data set [2] (setting [3]) was 72.9 ± 4.97 µg/mL (≈ 473 µM).

As for `O=C(O)/C=C/c1ccc(O)c(O)c1` [Compound 15, trans-caffeic acid], the CC50 at 24 h in data set [1] is > 100 µg/mL. In data set [2] (setting [3]), the IC50 stood at 95.2 ± 1.2 µg/mL (≈ 528 µM).

For the compound `COc1cc(C(=O)O)cc(OC)c1O` [Compound 16, syringic acid], the 50% cytotoxic concentration (CC50) at 24 h in data set [1] is > 100 µg/mL. The IC50 in data set [2] (setting [3]) was > 100 µg/mL.

As for `COc1cc(C(=O)CCO)cc(OC)c1O` [Compound 17, 3-hydroxy-1-(4-hydroxy 3,5-dimethoxyphenyl)-1-propanone], the CC50 at 24 h in data set [1] is > 100 µg/mL. Also, the IC50 in data set [2] (setting [3]) is > 100 µg/mL.

On to `COc1cc(/C=C/C(=O)O)ccc1O` [Compound 18, ferulic acid], for which the CC50 at 24 h in data set [1] is > 100 µg/mL. For the same compound, the concentration for half-maximal inhibition (IC50) in data set [2] (setting [3]) is > 100 µg/mL.

As to `COC(=O)c1ccc(O)c(O)c1` [Compound 19, protocatechuic acid methyl ester], in data set [1], the CC50 at 24 h is > 100 µg/mL. Also, the half-maximal inhibitory concentration (IC50) in data set [2] (setting [3]) is > 100 µg/mL.

On to `COc1cc(C(=O)C(O)CO)ccc1O` (stereo not drawn) [Compound 20, C-veratroylglycol], for which the 50% cytotoxic concentration (CC50) at 24 h in data set [1] is > 100 µg/mL. Moreover, the IC50 in data set [2] (setting [3]) was > 100 µg/mL.

As for `COc1ccc2c(c1)c(CC(=O)O)c(C)n2C(=O)c1ccc(Cl)cc1` [Indomethacin, indomethacin, reference compound], in data set [1], the CC50 at 24 h was > 100 µg/mL. In data set [2] (setting [3]), the half-maximal inhibitory concentration (IC50) was 46.7 ± 3.14 µg/mL (≈ 131 µM).

Take (+)-pinoresinol [Compound 11]: the “IC50 (inhibition of nitric oxide production)” value in data set [2] (setting [3]) was >100 µg/mL.
